From patent US9198886B2, “Use of 2,5-dihydroxybenzene for the treatment of ocular diseases” (priority 2006, dated 2015)

How the values were obtained:
[1] = test system: human retinal endothelial cells (HREC); experiment: Proliferation of human retinal endothelial cells (crystal violet); assay type: cell-based; conditions: 72 hours
Procedure: (§1) Primary cultures of human retinal endothelial cells (HREC) were used. Cells were obtained from Cell Systems (Virginia, USA) and subcultured with CSC complete medium (Cell Systems). Cells at 2 to 5 passages were seeded in 24-well plates at 7,500 cells/well density and, once attached, the cells were treated or not treated (controls) with 2A-5HBS (500 and 1000 μM) or 5A-2HBS (500 and 1000 μM) and they were allowed to proliferate for 72 hours, with daily medium changes. After that, the proliferation of HREC was evaluated by staining the fixed cells with crystal violet. The number of cells is proportional to the amount of retained dye, which was spectrophotometrically determined by measuring absorbance at 595 nm after removing the dye from the cells. Data are expressed as the percentage of absorbance at 595 nm obtained in control conditions. Data were obtained from two different experiments performed in triplicate.
as §1, with “2,5-DHCME (50” for “2A-5HBS (500”, “100” for “1000 μM) or 5A-2HBS (500 and 1000”, “changes. Under the same conditions, other cultures were treated with calcium 2,5-dihydroxybenzenesulfonate (DHBS; 100 μM) for comparison.” for “changes.”

[2] = test system: corneal neovascularization; experiment: Topical solution in a patient with corneal neovascularization; assay type: in vivo, human; conditions: 5% solution of potassium salt, 4 drops a day topically, 19 days, one patient
Source text: Photographs showing the presence of corneal neovascularization in a patient before being treated (A) and after 19 days of topical application of a solution containing 5% of potassium 2,5-dihydroxybenzoate (B). The treatment consisted of daily topical application of 4 drops of such solution.
4 drops a day were topically applied in a patient that presented a corneal neovascularization process refractory to any type of previous treatment.

rat glioma C6 cells = experiment: Proliferation of rat glioma C6 cells (crystal violet); assay type: cell-based; conditions: 500 μM, 48 h
Procedure: FIG. 23. […] 5A-2HBS and 2A-5HBS were administered or not (control) after seeding C6 cells in 24 well plates (10^4 per well) until they were fixed 48 hours later. Data are expressed as the mean±SEM of the percentage of absorbance at 595 nm obtained in control cultures, which is proportional to the number of cells stained with crystal violet. Data were obtained from 3 cultures for each treatment and 6 control cultures.
The cell line used was the C6 cell line. The cells were cultured as previously described (Cuevas P et al., Neurol Res 2005, 27:797-800). The cells were cultured as adherent cells in Dulbecco's modified Eagle's medium, supplemented with 7.5% (v/v) fetal bovine serum, 10 μg/ml streptomycin and 10 units/ml penicillin. The tumor cells were seeded in 24-well plates at a density of 10,000 cells/well, and were incubated at 37° C. in a humidified chamber with 5% CO2. Once adhered, the cells were treated or not (controls) with (5A-2HBS) (500 μM) or (2A-5HBS) (500 μM) and they were allowed to proliferate for 48 h. After this time the glioma cell proliferation was evaluated by means of staining the fixed cells with crystal violet. The number of cells is proportional to the amount of retained dye, which was determined spectrophotometrically by measuring the absorbance at 595 nm once the dye was extracted from the cells.

[3] = molecular target: T1, fibroblast growth factor-1 (FGF-1) (Homo sapiens, UniProt P05230); experiment: FGF-1 induced mitogenesis in quiescent Balb/c 3T3 fibroblasts; assay type: cell-based; conditions: potassium salts, except 2-acetoxy-5-hydroxybenzene sulfonate as calcium salt
T1 sequence (P05230 whole entry, species assumed): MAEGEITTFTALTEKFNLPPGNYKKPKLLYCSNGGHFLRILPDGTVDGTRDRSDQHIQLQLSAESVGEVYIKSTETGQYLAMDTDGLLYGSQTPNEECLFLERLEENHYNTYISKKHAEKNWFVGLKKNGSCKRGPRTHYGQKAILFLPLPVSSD
Procedure: The evaluated compounds were used in the form of potassium salt, except in the first case in which calcium salt was used. The experiments were carried out as described in Fernández-Tornero C et al. J Biol Chem, 2003.

[4] = molecular target: T1, fibroblast growth factor-1 (FGF-1); experiment: Co-crystal structure with fibroblast growth factor-1; assay type: binding; conditions: for binding site on FGF-1: crystal diffraction of the complex; for acetoxyl groups of the compound when bound to FGF-1: crystal diffraction, electron density contoured at 1σ
Source text: (§2) FIG. 24. 2-acetoxy-5-hydroxybenzenesulfonic acid co-crystallized with fibroblast growth factor-1. […] The compound occupies a place that is very close to that described occupied by 2,5-dihydroxybenzenesulfonic acid, the aromatic ring of which forms a cation-π bond with the N^ε group of lysine 132, which is marked in panel A as reference. […] In panels A and B, the protein surface is colored according to its electrostatic potential (light grey: negative charge; dark grey: positive charge; white: lack of charge).
as §2, with “25. 5-acetoxy-2-hydroxybenzenesulfonic” for “24. 2-acetoxy-5-hydroxybenzenesulfonic”
as §2, with “26. 2,5-diacetoxybenzenesulfonic” for “24. 2-acetoxy-5-hydroxybenzenesulfonic”
Based on the crystal diffraction of the FGF-1:2-acetoxy-5-hydroxybenzene sulfonic acid, FGF-1:5-acetoxy-2-hydroxybenzene sulfonic acid and FGF-1:2,5-diacetoxybenzene sulfonic acid complexes, the structures of the complexes were calculated and represented. FIGS. 24, 25 and 26, which show the surface of the dyed protein according to its electrostatic potential (light grey: negative charge; dark grey: positive charge; white: lack of charge), show the manner in which 2-acetoxy-5-hydroxybenzene sulfonic acid, 5-acetoxy-2-hydroxybenzene sulfonic acid and 2,5-diacetoxybenzene sulfonic acid interact, respectively, with FGF-1.

Structure (SMILES)	HREC proliferation ([1]; 50 μM)	HREC proliferation ([1]; 100 μM, DHBS as calcium salt)	degree of corneal vascularization [2]	HREC proliferation ([1]; 500 μM)	HREC proliferation ([1]; 1000 μM)	C6 glioma cell proliferation (rat glioma C6 cells)	FGF-1 induced mitogenesis [3]	binding site on FGF-1 [4]	acetoxyl groups of the compound when bound to FGF-1 [4]
COC(=O)C=Cc1cc(O)ccc1O [2,5-DHCME, 2,5-dihydroxycinnamic acid methyl ester]	significant inhibition of HREC proliferation	significant inhibition of HREC proliferation	–	–	–	–	–	–	–
O=C([O-])c1cc(O)ccc1O.[K+] [2,5-dihydroxybenzoate, potassium 2,5-dihydroxybenzoate]	–	–	remarkable reduction in the degree of corneal vascularization	–	–	–	–	–	–
CC(=O)Oc1ccc(O)cc1S(=O)(=O)[O-].[K+] [2A-5HBS, potassium 2-acetoxy-5-hydroxybenzene sulfonate]	–	–	–	significant inhibition of HREC proliferation	significant inhibition of HREC proliferation	inhibition of rat glioma cell proliferation	Inhibition of FGF-1 induced mitogenesis was observed	very close to the one that has been described occupied by 2,5-dihydroxybenzene sulfonic acid	conserve the acetoxyl groups
CC(=O)Oc1ccc(O)c(S(=O)(=O)[O-])c1.[K+] [5A-2HBS, potassium 5-acetoxy-2-hydroxybenzene sulfonate]	–	–	–	–	–	inhibition of rat glioma cell proliferation	Inhibition of FGF-1 induced mitogenesis was observed	very close to the one that has been described occupied by 2,5-dihydroxybenzene sulfonic acid	conserve the acetoxyl groups
